Compound in the assay: CC1=C(C=CC(=C1)[N+](=O)[O-])NS(=O)(=O)C2=C(C=CC(=C2)Cl)Cl [FH535]
The experiment in a line: relative viability (nuclei count vs DMSO), 5 days (fraction); higher = more cells survive. The method in brief:
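After an overnight hold at 37 °C, lung cancer cell lines in 1536-well plates were pinned with five library-drug doses (not always all listed), each √10 from the next, on vehicle-anchored plates. The cells stayed 5 days without fresh medium, then a one-step fix, permeabilisation and Hoechst stain preceded 4× imaging and MetaXpress nuclear counts. A plate passed only with control CV under 25% and at least one doubling. Viability is the median, over plates, of treated-well nuclei relative to vehicle-well nuclei.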

Take NCI-H727: the relative viability is 0.699 (0.04 µM), 0.814 (0.1265 µM), 0.706 (0.4 µM) and 0.797 (1.265 µM).

Take NCI-H838: the relative viability came out at 0.962 (0.04 µM), 0.96 (0.1265 µM), 0.851 (0.4 µM) and 0.777 (1.265 µM).

In the case of NCI-H1355, the relative viability runs as follows: (0.04 µM) 0.942; (0.1265 µM) 0.981; (0.4 µM) 0.917; (1.265 µM) 0.681.

As for NCI-H1395, the relative viability reads like this: (0.04 µM) 0.683; (0.1265 µM) 0.929; (0.4 µM) 0.909; (1.265 µM) 0.62.

NCI-H1437: the relative viability reads like this: (0.04 µM) 0.976; (0.1265 µM) 0.934; (0.4 µM) 0.731; (1.265 µM) 0.422.

Consider NCI-H1563, for which the relative viability reads like this: (0.04 µM) 0.954; (0.1265 µM) 0.892; (0.4 µM) 0.995; (1.265 µM) 0.771.

In the case of NCI-H1650, the relative viability (0.04 µM) was 0.893, the relative viability (0.1265 µM) stood at 0.966, the relative viability (0.4 µM) worked out at 0.881 and the relative viability (1.265 µM) stood at 0.717.

With NCI-H1651, the relative viability is, setting by setting: (0.04 µM) 0.92; (0.1265 µM) 0.988; (0.4 µM) 0.964; (1.265 µM) 0.727.

Take NCI-H1666: the relative viability by setting is: (0.04 µM) 0.986; (0.1265 µM) 0.976; (0.4 µM) 0.954; (1.265 µM) 0.93.

In the case of NCI-H1703, the relative viability (0.04 µM) was 0.958, the relative viability (0.1265 µM) is 0.848, the relative viability (0.4 µM) was found to be 0.929 and the relative viability (1.265 µM) came to 0.768.

As for NCI-H1734, the relative viability was determined as 0.724 (0.04 µM), 1.07 (0.1265 µM), 0.945 (0.4 µM) and 0.821 (1.265 µM).

With NCI-H1755, the relative viability was 1 (0.04 µM), 1.05 (0.1265 µM), 0.944 (0.4 µM) and 0.953 (1.265 µM).

For NCI-H1792, the relative viability by setting is: (0.04 µM) 0.874; (0.1265 µM) 0.958; (0.4 µM) 0.789; (1.265 µM) 0.62.

For the cell line NCI-H1793, the relative viability (0.04 µM) worked out at 0.825, the relative viability (0.1265 µM) amounted to 0.747, the relative viability (0.4 µM) turned out to be 0.762 and the relative viability (1.265 µM) is 0.642.

Take NCI-H1915: the relative viability (0.04 µM) was found to be 0.863, the relative viability (0.1265 µM) was 1.03, the relative viability (0.4 µM) was determined as 0.906 and the relative viability (1.265 µM) amounted to 0.792.

In the case of NCI-H1944, the relative viability runs as follows: (0.04 µM) 0.862; (0.1265 µM) 0.993; (0.4 µM) 0.928; (1.265 µM) 0.818.

With NCI-H1975, the relative viability (0.04 µM) stood at 0.919, the relative viability (0.1265 µM) is 0.965, the relative viability (0.4 µM) came out at 0.87 and the relative viability (1.265 µM) worked out at 0.82.

NCI-H1993: the relative viability runs as follows: (0.04 µM) 0.902; (0.1265 µM) 0.967; (0.4 µM) 0.838; (1.265 µM) 0.635.

For NCI-H2009, the relative viability was determined as 0.964 (0.04 µM), 1.01 (0.1265 µM), 0.92 (0.4 µM) and 0.701 (1.265 µM).

For the cell line NCI-H2023, the relative viability was 0.901 (0.04 µM), 1.06 (0.1265 µM), 0.988 (0.4 µM) and 0.841 (1.265 µM).

NCI-H2085: the relative viability by setting is: (0.04 µM) 0.96; (0.1265 µM) 0.967; (0.4 µM) 0.97; (1.265 µM) 0.852.

As to NCI-H2087, the relative viability (0.04 µM) was 1.05, the relative viability (0.1265 µM) was 1.01, the relative viability (0.4 µM) turned out to be 0.845 and the relative viability (1.265 µM) amounted to 0.683.

As for NCI-H2126, the relative viability runs as follows: (0.04 µM) 0.961; (0.1265 µM) 1.02; (0.4 µM) 0.888; (1.265 µM) 0.67.

NCI-H2170: the relative viability was found to be 0.904 (0.04 µM), 1.02 (0.1265 µM), 0.963 (0.4 µM) and 0.858 (1.265 µM).

With NCI-H2228, the relative viability is 0.884 (0.04 µM), 1.01 (0.1265 µM), 0.985 (0.4 µM) and 0.896 (1.265 µM).

Turning to NCI-H2342, the relative viability came out at 0.96 (0.04 µM), 0.964 (0.1265 µM), 1.01 (0.4 µM) and 0.76 (1.265 µM).

As for NCI-H2347, the relative viability was 0.986 (0.04 µM), 0.974 (0.1265 µM), 1.02 (0.4 µM) and 0.842 (1.265 µM).

Turning to NCI-H2405, the relative viability by setting is: (0.04 µM) 0.922; (0.1265 µM) 0.967; (0.4 µM) 0.882; (1.265 µM) 0.713.

As to NCI-H3122, the relative viability (0.04 µM) is 0.933, the relative viability (0.1265 µM) came out at 0.995, the relative viability (0.4 µM) worked out at 0.978 and the relative viability (1.265 µM) was found to be 0.885.

As to PC-3 [JPC-3], the relative viability (0.04 µM) turned out to be 0.971, the relative viability (0.1265 µM) was determined as 1.04, the relative viability (0.4 µM) was found to be 0.906 and the relative viability (1.265 µM) was 0.621.

For the cell line PC-14, the relative viability by setting is: (0.04 µM) 1.01; (0.1265 µM) 1.06; (0.4 µM) 0.989; (1.265 µM) 0.955.

RERF-LC-KJ: the relative viability (0.04 µM) is 0.947, the relative viability (0.1265 µM) came to 0.998, the relative viability (0.4 µM) is 0.962 and the relative viability (1.265 µM) was 0.808.

Take SK-LU-1: the relative viability by setting is: (0.04 µM) 1.03; (0.1265 µM) 1.02; (0.4 µM) 0.945; (1.265 µM) 0.758.

For SK-MES-1, the relative viability stood at 0.986 (0.04 µM), 1.01 (0.1265 µM), 0.963 (0.4 µM) and 0.776 (1.265 µM).

With SW 900, the relative viability (0.04 µM) is 0.962, the relative viability (0.1265 µM) came out at 0.754, the relative viability (0.4 µM) came to 0.789 and the relative viability (1.265 µM) was 0.743.

SW 1573: the relative viability runs as follows: (0.04 µM) 0.908; (0.1265 µM) 1.01; (0.4 µM) 0.899; (1.265 µM) 0.836.

Turning to UMC-11, the relative viability reads like this: (0.04 µM) 0.94; (0.1265 µM) 0.877; (0.4 µM) 0.9; (1.265 µM) 0.911.

For the origin of these results see the supplement of paper PMC10307832.
